# In PubChem BioAssay (NCI):
#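 1) Cells in 96-well plates. 2) Compound, 48 h, 5 concentrations. 3) Linear interpolation between surrounding doses. 4) Unreached endpoint = highest concentration. TGI denotes the concentration required for complete inhibition of growth.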
# How the values were obtained:
# Test in all cases: inhibition of tumour cell growth, NCI panel, 48 h
# A549 NSCLC = tested on: A549 NSCLC
# ACHN renal = tested on: ACHN renal
# BT-549 breast = tested on: BT-549 breast
# HOP-92 NSCLC = tested on: HOP-92 NSCLC
# KM12 colon = tested on: KM12 colon
# M14 melanoma = tested on: M14 melanoma
# MCF7 breast = tested on: MCF7 breast
# MDA-MB-231 breast = tested on: MDA-MB-231 breast
# MDA-MB-435 = tested on: MDA-MB-435
# MDA-N = tested on: MDA-N
# MOLT-4 leukemia = tested on: MOLT-4 leukemia
# PC-3 prostate = tested on: PC-3 prostate
# SNB-75 CNS = tested on: SNB-75 CNS
# SW-620 colon = tested on: SW-620 colon
# T-47D breast = tested on: T-47D breast
# TK-10 renal = tested on: TK-10 renal
# U251 CNS = tested on: U251 CNS
# UACC-62 melanoma = tested on: UACC-62 melanoma
# A498 renal = tested on: A498 renal
# NCI-H226 lung = tested on: NCI-H226 lung
Structure (SMILES),TGI (A549 NSCLC),TGI (ACHN renal),TGI (BT-549 breast),TGI (HOP-92 NSCLC),TGI (KM12 colon),TGI (M14 melanoma),TGI (MCF7 breast),TGI (MDA-MB-231 breast),TGI (MDA-MB-435),TGI (MDA-N),TGI (MOLT-4 leukemia),TGI (PC-3 prostate),TGI (SNB-75 CNS),TGI (SW-620 colon),TGI (T-47D breast),TGI (TK-10 renal),TGI (U251 CNS),TGI (UACC-62 melanoma),TGI (A498 renal),TGI (NCI-H226 lung)
COC1OC(COC(=O)NCCCCC(=O)C(F)(F)F)C(O)C(O)C1O (stereo not drawn),> 100 µM,> 100 µM,> 100 µM,> 100 µM,> 100 µM,> 100 µM,> 100 µM,> 100 µM,> 100 µM,> 100 µM,> 100 µM,> 100 µM,> 100 µM,> 100 µM,> 100 µM,> 100 µM,> 100 µM,> 100 µM,–,–
Cc1c2cnccc2nc2[nH]c3ccncc3c12,> 100 µM,13.6 µM,63.8 µM,25.3 µM,41.8 µM,20.6 µM,–,> 100 µM,27.6 µM,43.2 µM,> 100 µM,> 100 µM,> 100 µM,65.8 µM,> 100 µM,24.3 µM,> 100 µM,41.5 µM,47.5 µM,–
CCOC(=O)C(NC(=O)NC(C(=O)OCC)C(=O)OCC)C(=O)OCC,> 100 µM,> 100 µM,> 100 µM,> 100 µM,–,> 100 µM,> 100 µM,–,> 100 µM,> 100 µM,> 100 µM,> 100 µM,–,> 100 µM,–,> 100 µM,> 100 µM,> 100 µM,–,> 100 µM
COc1ccc(NCC(=O)Nn2c(C)nc3ccc(S(=O)(=O)Nc4ccc(OC)cc4)cc3c2=O)cc1,> 100 µM,> 100 µM,> 100 µM,> 100 µM,> 100 µM,> 100 µM,> 100 µM,> 100 µM,> 100 µM,> 100 µM,> 100 µM,> 100 µM,> 100 µM,> 100 µM,–,> 100 µM,> 100 µM,> 100 µM,–,> 100 µM
CCOC(=O)COc1ccc(/C=C/C(=O)c2ccc(OC)cc2)cc1,> 100 µM,> 100 µM,> 100 µM,48.2 µM,> 100 µM,> 100 µM,> 100 µM,88.3 µM,62.9 µM,75.1 µM,> 100 µM,62.5 µM,> 100 µM,61.6 µM,> 100 µM,> 100 µM,34.6 µM,58.6 µM,> 100 µM,–
CC(C)(C)OC(=O)CN1CCNCCN(CC(=O)OC(C)(C)C)CC1,> 100 µM,> 100 µM,> 100 µM,> 100 µM,> 100 µM,> 100 µM,> 100 µM,> 100 µM,–,> 100 µM,> 100 µM,> 100 µM,68.7 µM,–,> 100 µM,> 100 µM,–,> 100 µM,> 100 µM,> 100 µM
CCCCCCCCCCCC1N=C(N)NC(CCCO)=C1C(=O)OC (stereo not drawn),30.4 µM,17.3 µM,23.1 µM,10.7 µM,2.81 µM,–,–,6.6 µM,–,> 100 µM,4.75 µM,3.93 µM,7.44 µM,–,17.5 µM,12.5 µM,–,21.5 µM,41.6 µM,32 µM
CC1CC/C(=C\c2ccc(N(C)C)cc2)C(=O)/C1=C/c1ccc(N(C)C)cc1 (stereo not drawn),> 100 µM,> 100 µM,> 100 µM,–,> 100 µM,> 100 µM,> 100 µM,> 100 µM,> 100 µM,> 100 µM,> 100 µM,> 100 µM,> 100 µM,> 100 µM,> 100 µM,> 100 µM,> 100 µM,> 100 µM,> 100 µM,> 100 µM
CN(C)C(=C1c2cc([N+](=O)[O-])ccc2-c2ccc([N+](=O)[O-])cc21)N(C)C,> 100 µM,> 100 µM,> 100 µM,–,> 100 µM,> 100 µM,> 100 µM,> 100 µM,> 100 µM,> 100 µM,> 100 µM,> 100 µM,> 100 µM,> 100 µM,> 100 µM,> 100 µM,> 100 µM,> 100 µM,> 100 µM,> 100 µM
CO[C@@H](c1ccccc1)[C@H](O)[C@](O)(c1ccccc1)P(=O)(OC)OC,> 100 µM,> 100 µM,> 100 µM,> 100 µM,> 100 µM,> 100 µM,–,> 100 µM,> 100 µM,> 100 µM,> 100 µM,> 100 µM,> 100 µM,> 100 µM,> 100 µM,> 100 µM,> 100 µM,> 100 µM,> 100 µM,> 100 µM
CC(C)CNC(=O)Cn1c2c(c3ccccc31)CCCC2,> 100 µM,> 100 µM,> 100 µM,> 100 µM,–,> 100 µM,> 100 µM,–,> 100 µM,> 100 µM,> 100 µM,> 100 µM,–,> 100 µM,–,> 100 µM,–,> 100 µM,85 µM,–
O=[N+]([O-])c1nccn1CC1OC(n2ccnc2[N+](=O)[O-])C(O)C(O)C1O (stereo not drawn),> 100 µM,> 100 µM,> 100 µM,> 100 µM,> 100 µM,> 100 µM,> 100 µM,–,–,> 100 µM,> 100 µM,> 100 µM,> 100 µM,> 100 µM,> 100 µM,> 100 µM,> 100 µM,> 100 µM,> 100 µM,> 100 µM
Cc1nnc2sc(-c3ccc(-c4ccccc4Cl)o3)nn12,> 100 µM,> 100 µM,60.3 µM,> 100 µM,> 100 µM,> 100 µM,> 100 µM,> 100 µM,44 µM,40.6 µM,51.1 µM,> 100 µM,–,> 100 µM,91.6 µM,> 100 µM,> 100 µM,> 100 µM,> 100 µM,83.5 µM
COc1ccc(C2NC3=C(CCCC3)C3(C#N)C(=O)N=C(N)C23C#N)cc1 (stereo not drawn),> 100 µM,> 100 µM,> 100 µM,> 100 µM,> 100 µM,> 100 µM,> 100 µM,> 100 µM,> 100 µM,> 100 µM,> 100 µM,> 100 µM,–,> 100 µM,> 100 µM,> 100 µM,> 100 µM,> 100 µM,> 100 µM,> 100 µM
O=C(NCCNCCO)N/N=C/c1ccc([N+](=O)[O-])cc1,> 100 µM,> 100 µM,> 100 µM,–,> 100 µM,> 100 µM,> 100 µM,> 100 µM,> 100 µM,> 100 µM,> 100 µM,> 100 µM,98.5 µM,> 100 µM,> 100 µM,> 100 µM,> 100 µM,> 100 µM,> 100 µM,> 100 µM
CN1C(=O)C(O)CC1c1cccc(F)c1 (stereo not drawn),> 100 µM,> 100 µM,> 100 µM,> 100 µM,> 100 µM,> 100 µM,> 100 µM,> 100 µM,> 100 µM,> 100 µM,> 100 µM,> 100 µM,> 100 µM,> 100 µM,–,–,> 100 µM,> 100 µM,> 100 µM,> 100 µM
CSCC[C@H]1C(=O)N=C(N)N1C(=O)OCc1ccccc1,–,> 100 µM,60.9 µM,–,> 100 µM,–,> 100 µM,> 100 µM,> 100 µM,> 100 µM,51.5 µM,> 100 µM,> 100 µM,33.9 µM,–,> 100 µM,> 100 µM,63.9 µM,> 100 µM,84.1 µM
Cc1ccc(C(=O)C#Cc2cn(C3CC(O)C(CO)O3)c(=O)[nH]c2=O)cc1 (stereo not drawn),> 100 µM,> 100 µM,> 100 µM,65.1 µM,> 100 µM,> 100 µM,> 100 µM,> 100 µM,> 100 µM,> 100 µM,–,> 100 µM,> 100 µM,89.2 µM,45 µM,> 100 µM,> 100 µM,> 100 µM,–,> 100 µM
CCOC(=O)C(O)(NC(=O)Nc1ccc(F)cc1)C(F)(F)F (stereo not drawn),> 100 µM,> 100 µM,> 100 µM,–,–,> 100 µM,–,–,> 100 µM,> 100 µM,> 100 µM,> 100 µM,> 100 µM,> 100 µM,> 100 µM,> 100 µM,> 100 µM,–,> 100 µM,–
c1ccc2c(c1)CCN2CCc1c[nH]c2ccccc12,> 10 µM,> 10 µM,> 10 µM,> 10 µM,> 10 µM,> 10 µM,> 10 µM,> 10 µM,> 10 µM,> 10 µM,> 10 µM,> 10 µM,> 10 µM,> 10 µM,> 10 µM,> 10 µM,> 10 µM,> 10 µM,–,> 10 µM
CC(=O)Nc1ccc(N2C(=O)/C(=C\c3cccc(Oc4ccccc4)c3)SC2c2ccccc2)cc1 (stereo not drawn),> 100 µM,> 100 µM,> 100 µM,40.2 µM,90.5 µM,> 100 µM,65.8 µM,> 100 µM,> 100 µM,42.3 µM,68.5 µM,–,–,> 100 µM,> 100 µM,> 100 µM,30.4 µM,> 100 µM,> 100 µM,> 100 µM
COC(=O)c1cc(-c2c[nH]cc2C(=O)OCc2ccccc2)cn1S(=O)(=O)c1ccc(C)cc1,> 100 µM,> 100 µM,> 100 µM,–,> 100 µM,> 100 µM,> 100 µM,> 100 µM,–,> 100 µM,> 100 µM,> 100 µM,> 100 µM,–,> 100 µM,> 100 µM,–,> 100 µM,> 100 µM,–
O=C1C(N=Nc2ccc(-c3nc4ccccc4o3)cc2)NC(=S)N1c1ccccc1 (stereo not drawn),> 100 µM,> 100 µM,> 100 µM,> 100 µM,> 100 µM,> 100 µM,> 100 µM,> 100 µM,> 100 µM,> 100 µM,> 100 µM,> 100 µM,> 100 µM,> 100 µM,> 100 µM,> 100 µM,> 100 µM,> 100 µM,–,> 100 µM
C1=NCCOCCN=Cc2ccccc2OCc2cccc(n2)COc2ccccc21,> 25 µM,> 25 µM,19.1 µM,> 25 µM,> 25 µM,> 25 µM,19.4 µM,19.1 µM,3.68 µM,6.96 µM,18.4 µM,> 25 µM,12.9 µM,> 25 µM,–,20.4 µM,18.2 µM,9.09 µM,> 25 µM,–
Cc1cc(NS(=O)(=O)c2ccc(Nc3c4ccccc4nc4ccc(C(=O)Nc5ccc(S(=O)(=O)N=C(N)N)cc5)cc34)cc2)no1,> 100 µM,> 100 µM,> 100 µM,> 100 µM,> 100 µM,> 100 µM,> 100 µM,> 100 µM,> 100 µM,> 100 µM,> 100 µM,> 100 µM,> 100 µM,> 100 µM,> 100 µM,> 100 µM,> 100 µM,> 100 µM,–,> 100 µM
O=Cc1cc2c(o1)C(=O)c1ccccc1C2=O,3.02 µM,7.96 µM,2.12 µM,–,4.54 µM,0.367 µM,0.581 µM,> 30.2 µM,–,0.352 µM,4.56 µM,11.6 µM,0.858 µM,1.02 µM,3.94 µM,8.52 µM,2.73 µM,3.29 µM,9.44 µM,2.27 µM
